Data on one molecule can be found in patent US7732431B2, “Pharmaceutical compositions comprising trimegestone” (aventis pharma SA, priority 1999, dated 2010).

A short description of the data set: Storage stability and light sensitivity of trimegestone in powder form. It is filed as physicochemical. The procedure:
Trimegestone is thus a molecule which is in itself stable. However, stability problems can appear during the preparation of tablets or if conventional pharmaceutical compositions comprising trimegestone are stored at 40° C. (dry or damp medium) or under more severe conditions. In particular, the appearance of (20S)-17alpha-methyl-7beta-(1-hydroxy-2-oxo-propyl)-oestra-4,9-dien-3-one, the 21R epimer of trimegestone, or even of oxopromegestone is observed under these conditions.

For the molecule `C[C@H](O)C(=O)[C@@]1(C)CC[C@H]2[C@@H]3CCC4=CC(=O)CCC4=C3CC[C@@]21C` [Trimegestone, (21S)-17alpha-methyl-17beta-(2-hydroxy-1-oxo-propyl)-oestra-4,9-dien-3-one], the Sensitivity to light result is listed as “very low sensitivity to light”. For the same molecule, the Stability after storage result (3 months at 70° C. under an inert gas) was “stable”. In addition, the Stability after storage result (6 months in a glass pill box at 50° C.) is listed as “stable”.
